Calls of active or inactive are those of the source.
What was measured:
H9c2 [1] = assay: Protection against LPS induced cell injury in rat H9c2 cells assessed as increase in cell viability under hypoxic condition at 0.001 to 10 uM by CCK-8 assay; type: functional, cell-based; conditions: dose 0.001-10 µM
H9c2 [2] = assay: Protection against LPS/ hypoxia induced cell injury in rat H9c2 cells assessed as recovery of cell viability at 0.001 to 10 uM by CCK-8 assay; type: functional, cell-based; conditions: dose 0.001-10 µM
H9c2 [3] = assay: Protection against LPS/hypoxia induced apoptosis in rat H9c2 cells assessed as reduction in necrotic cells at 10 umol/L incubated for 4 hrs under hypoxia condition by AnnexinV-FITC/propidium iodide staining based flow cytometry analysis (reference value: 31.02%); type: functional; set-up: scale not given: the % may be the effect or the level left; conditions: dose 10 µmol/L, at 10 µM
NTR = assay: Stability of the compound assessed as NTR (unknown origin) mediated hydrolysis by measuring half life by UV spectrophotometry; type: ADME; conditions: human, NTR enzyme
H9c2 [4] = assay: Inhibition of Carbonic anhydrase in LPS/hypoxia induced rat H9c2 cells using p-nitrophenyl acetate as substrate by microplate reader method; type: cell-based
H9c2 [5] = assay: Anti-inflammatory activity in LPS/hypoxia induced rat H9c2 cells assessed as reduction of IL-6 protein expression at 10 uM by Western blot analysis; type: functional, cell-based
H9c2 [6] = assay: Anti-inflammatory activity in LPS/hypoxia induced rat H9c2 cells assessed as reduction of TNF-alpha protein expression at 10 uM by Western blot analysis; type: functional, cell-based
H9c2 [7] = assay: Anti-inflammatory activity in LPS/hypoxia induced rat H9c2 cells assessed as reduction of IL-1 beta protein expression at 10 uM by Western blot analysis; type: functional, cell-based
H9c2 [8] = assay: Anti-inflammatory activity in LPS/hypoxia induced rat H9c2 cells assessed as increase in VEGF expression at 10 uM by Western blot analysis; type: functional, cell-based
H9c2 [9] = assay: Anti-inflammatory activity in rat H9c2 cells assessed as downregulation of cytochrome C expression at 10 uM by Western blot analysis; type: functional, cell-based
H9c2 [10] = assay: Anti-inflammatory activity in rat H9c2 cells assessed as inhibition of endogenous IL-6 protein expression by DAPI staining based immunofluorescence analysis; type: functional, cell-based
H9c2 [11] = assay: Protection against LPS/hypoxia induced cell injury in rat H9c2 cells assessed as recovery of cell viability by CCK-8 assay (reference value: 69.0%); type: functional
H9c2 [12] = assay: Reversal of LPS/hypoxia induced mitochondrial membrane potential loss in rat H9c2 cells by JC-1 dye based flow cytometry analysis; type: functional, cell-based
H9c2 [13] = assay: Reversal of LPS/hypoxia induced mitochondrial membrane potential loss in rat H9c2 cells assessed as increase in JC-1 polymer morphology by JC-1 dye based flow cytometry analysis; type: functional, cell-based; conditions: time 20.0 min
H9c2 [14] = assay: Reversal of ATP level in LPS/hypoxia induced rat H9c2 cells by multimode plate reader analysis; type: functional, cell-based
H9c2 [15] = assay: Inhibition of intracellular ROS level in LPS/hypoxia induced rat H9c2 cells by DCFH-DA probe based fluorescence confocal microscopy analysis; type: functional, cell-based
H9c2 [16] = assay: Inhibition of intracellular ROS level in LPS/hypoxia induced rat H9c2 cells in presence of Na2WO4 by DCFH-DA probe based fluorescence confocal microscopy analysis; type: functional, cell-based
Rattus norvegicus [17] = assay: Antiinflammatory activity against LPS/talc powder induced pericarditic Wistar rat assessed as restoration of heart rate at 20 mg/kg, ip pretreated for 2 hrs followed by LPS/tal powder stimulation measured after 48 hrs by ECG analysis; type: functional, organism-based; conditions: time 50.0 hrs
Rattus norvegicus [18] = assay: Antiinflammatory activity against LPS/talc powder induced pericarditic Wistar rat assessed as improvement in low voltage of R wave at 20 mg/kg, ip pretreated for 2 hrs followed by LPS/tal powder stimulation measured after 48 hrs by ECG analysis; type: functional, organism-based; conditions: time 50.0 hrs
Rattus norvegicus [19] = assay: Antiinflammatory activity against LPS/talc powder induced pericarditic Wistar rat assessed as reduction in heart swelling at 20 mg/kg, ip pretreated for 2 hrs followed by LPS/tal powder stimulation measured after 48 hrs; type: functional, organism-based; conditions: time 50.0 hrs
Rattus norvegicus [20] = assay: Antiinflammatory activity against LPS/talc powder induced pericarditic Wistar rat assessed as elimination of pericardial effusion at 20 mg/kg, ip pretreated for 2 hrs followed by LPS/tal powder stimulation measured after 48 hrs; type: functional, organism-based; conditions: time 50.0 hrs
Rattus norvegicus [21] = assay: Antiinflammatory activity against LPS/talc powder induced pericarditic Wistar rat assessed as reduction in infarct size at 20 mg/kg, ip pretreated for 2 hrs followed by LPS/tal powder stimulation measured after 48 hrs by TTC staining based assay; type: functional, organism-based; conditions: time 50.0 hrs
Rattus norvegicus [22] = assay: Antiinflammatory activity in LPS/talc powder induced pericarditic Wistar rat assessed as increase in CK-MB level in serum at 20 mg/kg, ip pretreated for 2 hrs followed by LPS/tal powder stimulation measured after 48 hrs (reference value: 4140+/-256.23 U/L); type: functional; conditions: time 50 hrs
Rattus norvegicus [23] = assay: Antiinflammatory activity in LPS/talc powder induced pericarditic Wistar rat assessed as increase in cTNI level in serum at 20 mg/kg, ip pretreated for 2 hrs followed by LPS/tal powder stimulation measured after 48 hrs (reference value: 0.167+/-0.025 ng/ml); type: functional; conditions: time 50 hrs
Rattus norvegicus [24] = assay: Antiinflammatory activity in LPS/talc powder induced pericarditic Wistar rat model assessed as reduction in cell edema at 20 mg/kg, ip pretreated for 2 hrs followed by LPS/tal powder stimulation measured after 48 hrs by H and E staining based analysis; type: functional, organism-based; conditions: time 50.0 hrs
Rattus norvegicus [25] = assay: Antiinflammatory activity in LPS/talc powder induced pericarditic Wistar rat model assessed as decrease in pericardium thickness at 20 mg/kg, ip pretreated for 2 hrs followed by LPS/tal powder stimulation measured after 48 hrs by H and E staining based analysis; type: functional, organism-based; conditions: time 50.0 hrs
Rattus norvegicus [26] = assay: Antiinflammatory activity in LPS/talc powder induced pericarditic Wistar rat assessed as decrease in TNF-alpha level at 20 mg/kg, ip pretreated for 2 hrs followed by LPS/tal powder stimulation measured after 48 hrs by Western blot analysis; type: functional, organism-based; conditions: time 50.0 hrs
Rattus norvegicus [27] = assay: Antiinflammatory activity in LPS/talc powder induced pericarditic Wistar rat model assessed as increase in VEGF level at 20 mg/kg, ip pretreated for 2 hrs followed by LPS/tal powder stimulation measured after 48 hrs by Western blot analysis; type: functional, organism-based; conditions: time 50.0 hrs
Rattus norvegicus [28] = assay: Antiinflammatory activity in LPS/talc powder induced pericarditic Wistar rat model assessed as reduction in cyt-c expression at 20 mg/kg, ip pretreated for 2 hrs followed by LPS/tal powder stimulation measured after 48 hrs by Western blot analysis; type: functional, organism-based; conditions: time 50.0 hrs
Rattus norvegicus [29] = assay: Antiinflammatory activity in LPS/talc powder induced pericarditic Wistar rat model assessed as suppression of TNF-alpha overexpression in heart at 20 mg/kg, ip pretreated for 2 hrs followed by LPS/tal powder stimulation measured after 48 hrs by IHC analysis; type: functional, organism-based; conditions: time 50.0 hrs

COc1ccc2cc([C@H](C)C(=O)OCc3cc(C)cc(COC(=O)NCCc4ccc(S(N)(=O)=O)cc4)c3OCc3ccc([N+](=O)[O-])cc3)ccc2c1
active: Activity (H9c2 [1])

COc1ccc2c(c1)c(CC(=O)OCc1cc(C)cc(COC(=O)NCCc3ccc(S(N)(=O)=O)cc3)c1OCc1ccc([N+](=O)[O-])cc1)c(C)n2C(=O)c1ccc(Cl)cc1
active: Activity (H9c2 [1])

COc1ccc2cc([C@H](C)C(=O)OCc3cc(C)cc(COC(=O)Cn4cc(CCCCC(=O)Nc5nnc(S(N)(=O)=O)s5)nn4)c3OCc3ccc([N+](=O)[O-])cc3)ccc2c1
active: Activity (H9c2 [1])

COc1ccc2c(c1)c(CC(=O)OCc1cc(C)cc(COC(=O)Cn3cc(CCCCC(=O)Nc4nnc(S(N)(=O)=O)s4)nn3)c1OCc1ccc([N+](=O)[O-])cc1)c(C)n2C(=O)c1ccc(Cl)cc1
active: Activity (H9c2 [2]) | inhibition (H9c2 [4]) | Activity (H9c2 [5]) | Activity (H9c2 [6]) | Activity (H9c2 [7]) | Activity (H9c2 [8]) | Activity (H9c2 [9]) | Activity (H9c2 [10]) | Activity (H9c2 [1]) | Activity (H9c2 [12]) | Activity (H9c2 [13]) | Activity (H9c2 [14]) | inhibition (H9c2 [15]) | inhibition (H9c2 [16]) | Activity (Rattus norvegicus [17]) | Activity (Rattus norvegicus [18]) | Activity (Rattus norvegicus [19]) | Activity (Rattus norvegicus [20]) | Activity (Rattus norvegicus [21]) | Activity (Rattus norvegicus [24]) | Activity (Rattus norvegicus [25]) | Activity (Rattus norvegicus [26]) | Activity (Rattus norvegicus [27]) | Activity (Rattus norvegicus [28]) | Activity (Rattus norvegicus [29])
1895 U/L: Activity (Rattus norvegicus [22])
8.58%: Activity (H9c2 [3])
94.9%: Activity (H9c2 [11])
0.104 ng/mL: Activity (Rattus norvegicus [23])
2.8 min: half-life (NTR)
